Laboratory results as given in patent US7618816B2, “Metal-binding therapeutic peptides” (Ontherix, Inc., priority 2005, dated 2009).
Values joined by “and” are separate entries in the source; they are usually repeats but may differ in a detail not shown here. Equal entries are not always repeated. Blank lines part the entries; values can stand above or below the compound they belong to. Where a SMILES comes first, the peptide text is derived from it. Where no end group is shown, it is not given here. The star is where a group is joined. Biotin = O=C1N[C@H]2[C@H](CS[C@H]2CCCCC(=O)*)N1

Legend:
CCRF-CEM = assay: Cell survival, mutants of MDOKSH peptide; assay type: cell-based; conditions: for CELL SURVIVAL, CCRF-CEM: expressed relative to the activity of the parental peptide MDOKSH
Text: (§1) In order to maximize the effects of cytotoxic peptides, alanine scanning of one peptide (MDOKSH) was undertaken as an illustration. 48 mutants were synthesized, purified and tested in CCRF-CEM and MCF-7. The cytotoxicity of the 48 peptides was strongly correlated in the two cell line assay systems (r=0.606). […] The core MBD sequence may, if desired, be excluded from the region to be explored by mutagenesis, in order to expedite the experiment.

MCF-7 [1] = assay: Cell survival, mutants of MDOKSH peptide; assay type: cell-based; parameters: CELL SURVIVAL, MCF-7: unit not given here; conditions: for CELL SURVIVAL, MCF-7: expressed relative to the activity of the parental peptide MDOKSH
Text: as §1

cancer cells = assay: Selective cytotoxicity, cancer cells versus normal counterparts; assay type: cell-based, human
Text: (§2) Also, peptides such as NFKB and CSK are of interest, targeting stress-coping mechanisms such as inflammation. The breast cancer lines tested are HS578T, MX-1, MDA-MB231, MDA-MB435 and MCF7. Leukemia cell lines tested for cytotoxicity effects with these MBD-tagged peptides are CCRF-CEM, RPMI-8226 and MOLT-4. Overall, MCF-7 and CCRF-CEM yield the most consistent data and the strongest effect across the board (Table 12). In addition, elevated levels of cytotoxicity are observed when multiple peptides are combined while keeping the overall amount of peptide added constant. Cytotoxicity increases with the number of peptides added per cocktail and is further enhanced by combining peptide cocktail treatment with paclitaxel.

MCF-7 [2] = assay: Cytotoxicity of MBD therapeutic peptides; assay type: cell-based, human; conditions: relative to equal dose of control MBD peptide, only p < 0.05 shown, 1-4 experiments
Text: as §2

MDA-MB231 = assay: Cytotoxicity of MBD therapeutic peptides; assay type: cell-based, human; conditions: relative to equal dose of control MBD peptide, only p < 0.05 shown, 1-4 experiments
Text: as §2

MOLT-4 = assay: Cytotoxicity of MBD therapeutic peptides; assay type: cell-based, human; conditions: relative to equal dose of control MBD peptide, only p < 0.05 shown, 1-4 experiments
Text: as §2

SR = assay: Cytotoxicity of MBD therapeutic peptides; assay type: cell-based; conditions: relative to equal dose of control MBD peptide, only p < 0.05 shown, 1-4 experiments
MDA-MB435 = assay: Cytotoxicity of MBD therapeutic peptides; assay type: cell-based; conditions: relative to equal dose of control MBD peptide, only p < 0.05 shown, 1-4 experiments
Text: as §2

RPMI-8826 = assay: Cytotoxicity of MBD therapeutic peptides; assay type: cell-based, human; conditions: relative to equal dose of control MBD peptide, only p < 0.05 shown, 1-4 experiments
Text: as §2

[3] = test system: shRNA containing the lambda nutR hairpin loop; assay: Bio-KGF binding of shRNA on Ni-NTA plate, Ribogreen; conditions: for Ribogreen Fluorescence: mean of eight readings
Text: Peptide Bio-KGF binds shRNA: Bio-KGF peptide was synthesized by Genemed Synthesis, Inc. (S. San Francisco, Calif.) as a 40-mer containing an MBD sequence and an RNA-hairpin binding domain from the N-terminus of bacteriophage lambda N protein: Bio-KGF: (“N”-terminal biotin) . . . KGF YKK KQC RPS KGR KRG FCW AQT RRR ERR AEK QAQ WKA A . . . (“C” terminus) (SEQ ID NO: 11)
An shRNA designed to silence the human beclin gene was designed to include a hairpin sequence corresponding to the NutR box of bacteriophage lambda mRNA (the binding target for the Bio-KGF peptide) and was amplified using the Silencer™ siRNA
Various molar excess amounts of Bio-KGF (ranging from 63 pg to 2 ug per well; similar results were obtained across this range) were attached to a Ni-NTA plate (Qiagen Inc., Carlsbad, Calif. for 1 hour and blocked overnight with 3% BSA at 4 degrees C. in the refrigerator, and washed with PBS/Tween and TE buffers. RNA dilutions were added in TE buffer, incubated for 30 min on shaker, then for 30 min on bench at room temperature. After one wash with TE buffer, Ribogreen reagent (Ribogreen RNA Quantitation Reagent and Kit from Molecular Probes/Invitrogen) was added to the wells, incubated 5 minutes, and fluorescence was read on a fluorescent plate reader. The results are listed in Table 8 (each number is a mean of eight readings): […]

Compound: CC(C)C[C@H](NC(=O)[C@H](CC(=O)O)NC(=O)[C@H](Cc1c[nH]c2ccccc12)NC(=O)[C@H](Cc1ccc(O)cc1)NC(=O)[C@H](CC(C)C)NC(=O)[C@@H]1CCCN1C(=O)[C@H](CCCCN)NC(=O)[C@H](Cc1c[nH]c2ccccc12)NC(=O)[C@H](CS)NC(=O)[C@H](Cc1ccccc1)NC(=O)CNC(=O)[C@H](CCCNC(=N)N)NC(=O)[C@H](CCCCN)NC(=O)[C@H](CCCNC(=N)N)NC(=O)CNC(=O)[C@H](CCCCN)NC(=O)[C@H](CO)NC(=O)[C@@H]1CCCN1C(=O)[C@H](CCCNC(=N)N)NC(=O)[C@H](CS)NC(=O)[C@H](CCC(N)=O)NC(=O)[C@H](CCCCN)NC(=O)[C@H](CCCCN)NC(=O)[C@H](CCCCN)NC(=O)[C@H](Cc1ccc(O)cc1)NC(=O)[C@H](Cc1ccccc1)NC(=O)CNC(=O)[C@H](CCCCN)NC(=O)[C@H](CCCCN)NC(=O)CCCC[C@@H]1SC[C@@H]2NC(=O)N[C@@H]21)C(=O)N[C@@H](Cc1ccc(O)cc1)C(=O)N[C@@H](CCC(=O)O)C(=O)O [MDOKSH] (Biotin-KKGFYKKKQCRPSKGRKRGFCWKPLYWDLYE-OH)
CELL SURVIVAL, CCRF-CEM (CCRF-CEM): 100
CELL SURVIVAL, MCF-7 (MCF-7 [1]): 100

Compound: CC(C)C[C@H](NC(=O)[C@H](C)NC(=O)[C@H](CCCCN)NC(=O)[C@H](Cc1c[nH]c2ccccc12)NC(=O)[C@H](CS)NC(=O)[C@H](Cc1ccccc1)NC(=O)CNC(=O)[C@H](CCCNC(=N)N)NC(=O)[C@H](CCCCN)NC(=O)[C@H](CCCNC(=N)N)NC(=O)CNC(=O)[C@H](CCCCN)NC(=O)[C@H](CO)NC(=O)[C@@H]1CCCN1C(=O)[C@H](CCCNC(=N)N)NC(=O)[C@H](CS)NC(=O)[C@H](CCC(N)=O)NC(=O)[C@H](CCCCN)NC(=O)[C@H](CCCCN)NC(=O)[C@H](CCCCN)NC(=O)[C@H](Cc1ccc(O)cc1)NC(=O)[C@H](Cc1ccccc1)NC(=O)CNC(=O)[C@H](CCCCN)NC(=O)[C@H](CCCCN)NC(=O)CCCC[C@@H]1SC[C@@H]2NC(=O)N[C@@H]21)C(=O)N[C@@H](Cc1ccc(O)cc1)C(=O)N[C@@H](Cc1c[nH]c2ccccc12)C(=O)N[C@@H](CC(=O)O)C(=O)N[C@@H](CC(C)C)C(=O)N[C@@H](Cc1ccc(O)cc1)C(=O)N[C@@H](CCC(=O)O)C(=O)O [Mutant 27] (Biotin-KKGFYKKKQCRPSKGRKRGFCWKALYWDLYE-OH)
Cytotoxicity versus parental MDOKSH (in words) (CCRF-CEM; CCRF-CEM): greatly enhanced cytotoxicity
Cytotoxicity versus parental MDOKSH (in words) (MCF-7 [1]; MCF-7): greatly enhanced cytotoxicity

Compound: CC(C)C[C@H](NC(=O)[C@H](CC(C)C)NC(=O)[C@H](CCCCN)NC(=O)[C@H](Cc1c[nH]c2ccccc12)NC(=O)[C@H](CC(C)C)NC(=O)[C@H](CC(=O)O)NC(=O)[C@H](CO)NC(=O)[C@H](Cc1ccccc1)NC(=O)[C@@H](NC(=O)[C@H](CCC(=O)O)NC(=O)CCCC[C@@H]1SC[C@@H]2NC(=O)N[C@@H]21)[C@@H](C)O)C(=O)N[C@@H](CCCCN)C(=O)N[C@@H](CCCCN)C(=O)NCC(=O)N[C@@H](Cc1ccccc1)C(=O)N[C@@H](Cc1ccc(O)cc1)C(=O)N[C@@H](CCCCN)C(=O)N[C@@H](CCCCN)C(=O)N[C@@H](CCCCN)C(=O)N[C@@H](CCC(N)=O)C(=O)N[C@@H](CS)C(=O)N[C@@H](CCCNC(=N)N)C(=O)N1CCC[C@H]1C(=O)N[C@@H](CO)C(=O)N[C@@H](CCCCN)C(=O)NCC(=O)N[C@@H](CCCNC(=N)N)C(=O)N[C@@H](CCCCN)C(=O)N[C@@H](CCCNC(=N)N)C(=O)NCC(=O)N[C@@H](Cc1ccccc1)C(=O)N[C@@H](CS)C(=O)N[C@@H](Cc1c[nH]c2ccccc12)C(=O)O [PEP-1] (Biotin-ETFSDLWKLLKKGFYKKKQCRPSKGRKRGFCW-OH)
Cytotoxic effect on cancer cells versus normal counterparts (in words) (cancer cells): strong cytotoxic effect on cancer cells but not their human counterparts

Compound: CC[C@H](C)[C@H](NC(=O)[C@H](CC(=O)O)NC(=O)[C@H](CO)NC(=O)[C@H](Cc1ccccc1)NC(=O)[C@@H](NC(=O)[C@H](CCC(=O)O)NC(=O)CCCC[C@@H]1SC[C@@H]2NC(=O)N[C@@H]21)[C@@H](C)O)C(=O)N[C@@H](Cc1c[nH]c2ccccc12)C(=O)N[C@@H](CCCCN)C(=O)N[C@@H](CC(C)C)C(=O)N[C@@H](CC(C)C)C(=O)N[C@@H](CCCCN)C(=O)N[C@@H](CCCCN)C(=O)NCC(=O)N[C@@H](Cc1ccccc1)C(=O)N[C@@H](Cc1ccc(O)cc1)C(=O)N[C@@H](CCCCN)C(=O)N[C@@H](CCCCN)C(=O)N[C@@H](CCCCN)C(=O)N[C@@H](CCC(N)=O)C(=O)N[C@@H](CS)C(=O)N[C@@H](CCCNC(=N)N)C(=O)N1CCC[C@H]1C(=O)N[C@@H](CO)C(=O)N[C@@H](CCCCN)C(=O)NCC(=O)N[C@@H](CCCNC(=N)N)C(=O)N[C@@H](CCCCN)C(=O)N[C@@H](CCCNC(=N)N)C(=O)NCC(=O)N[C@@H](Cc1ccccc1)C(=O)N[C@@H](CS)C(=O)N[C@@H](Cc1c[nH]c2ccccc12)C(=O)O [PEP-3] (Biotin-ETFSDIWKLLKKGFYKKKQCRPSKGRKRGFCW-OH)
% viability @ 48 hr/25 ug/ml peptide, MCF-7 (MCF-7 [2]): 27.5 ± 15.2% and 30.6 ± 5.7% and 21.7 ± 1.5%
% viability @ 48 hr/25 ug/ml peptide, MDA-MB231 (MDA-MB231): 32.9 ± 1.7%
% viability @ 48 hr/25 ug/ml peptide, MOLT-4 (MOLT-4): 73.0 ± 5.5% and 58.3 ± 16.5%
% viability @ 48 hr/25 ug/ml peptide, SR (SR): 75.9 ± 15.7%
% viability @ 48 hr/25 ug/ml peptide, MDA-MB435 (MDA-MB435): 16.0 ± 2.0% and 27.0 ± 3.9%
Cytotoxic effect on cancer cells versus normal counterparts (in words) (cancer cells): strong cytotoxic effect on cancer cells but not their human counterparts

Compound: AKGFYKKKQCRPSKGRKRGFCWKPLYWDLYE [Mutant 48]
CELL SURVIVAL, CCRF-CEM (CCRF-CEM): 71.8 ± 10.7
CELL SURVIVAL, MCF-7 (MCF-7 [1]): 61.6 ± 3.1

Compound: Biotin-KKGFYKKKQCRPSKGRKRGFCWARIDDMSSRIDDLEKNIADL (cysteines drawn unpaired) [M9HSBP1]
% viability @ 48 hr/25 ug/ml peptide, MOLT-4 (MOLT-4): 77.1 ± 20.3%
% viability @ 48 hr/25 ug/ml peptide, RPMI-8826 (RPMI-8826): 77.7 ± 5.2%

Binding of shRNA (in words) [3]: binds the shRNA
Ribogreen Fluorescence ([3]; 2.7 ng shRNA per well): 853 ± 600
Ribogreen Fluorescence ([3]; 5.5 ng shRNA per well): 2058 ± 781
Ribogreen Fluorescence ([3]; 11 ng shRNA per well): 6016 ± 2977
Ribogreen Fluorescence ([3]; 22 ng shRNA per well): 11924 ± 3650
Ribogreen Fluorescence ([3]; 44 ng shRNA per well): 42053 ± 12769
Ribogreen Fluorescence ([3]; 88 ng shRNA per well): 81819 ± 24656
Compound: KGF YKK KQC RPS KGR KRG FCW AQT RRR ERR AEK QAQ WKA A (Biotin-KGFYKKKQCRPSKGRKRGFCWAQTRRRERRAEKQAQWKAA; cysteine pairing not given here) [Bio-KGF]

Compound: KKGFYKKKQCRPSKGRKRGFCWAPLYWDLYE [Mutant 28]
CELL SURVIVAL, CCRF-CEM (CCRF-CEM): 60.1 ± 11.1
CELL SURVIVAL, MCF-7 (MCF-7 [1]): 52.7 ± 11.7

Compound: KKGFYKKKQCRPSKGRKRGFCWKPLYWALYE [Mutant 23]
CELL SURVIVAL, CCRF-CEM (CCRF-CEM): 74.5 ± 8.0
CELL SURVIVAL, MCF-7 (MCF-7 [1]): 58.8 ± 8.1

Compound: KKGFYKKKQCRPSKGRKRGFCWKPLYWDLYEI [Mutant 6]
CELL SURVIVAL, CCRF-CEM (CCRF-CEM): 62.3 ± 5.0
CELL SURVIVAL, MCF-7 (MCF-7 [1]): 68.5 ± 6.5

Compound: KKGFYKKKQCRPSKGRKRGFCWKPLYWDLYEM [Mutant 9]
CELL SURVIVAL, CCRF-CEM (CCRF-CEM): 63.8 ± 4.6
CELL SURVIVAL, MCF-7 (MCF-7 [1]): 56.8 ± 8.1

Compound: KKGFYKKKQCRPSKGRKRGFCWKPLYWDLYEP [Mutant 11]
CELL SURVIVAL, CCRF-CEM (CCRF-CEM): 64.8 ± 7.2
CELL SURVIVAL, MCF-7 (MCF-7 [1]): 59.6 ± 10.7
